Results published in US20050009902A1, “Remedies for pruritus” (priority 2001, published 2005).

Columns and labels:
Assay type in all cases: in vivo, guinea pig
[1] = system: histamine-induced models; test: Ocular pruritus inhibition activity to histamine-induced models; conditions: for Number of eye scratchings: 10 μL/one eye, average, 12 eyes, control 22.8; for Number of eye scratchings / Eye scratching inhibition rate: 30 minutes after 1.0% histamine; for Eye scratching inhibition rate: vs physiological saline control
Method: Palmidrol was suspended in a physiological saline at a concentration of 0.1% or 0.5%(w/v), and the resulting suspension was instilled into both eyes of a 5-week-old male Hartley guinea pig in 10 μL/one eye. After 10 minutes, the palmidrol suspension at the same concentration was also instilled thereinto (twice in total). A physiological saline was used as a control.
After 5 minutes from the second instilling of palmidrol, a physiological saline containing 1.0% (w/v) histamine was instilled into both eyes of the guinea pig in 10 μL/one eye to induce eye scratching action.
The behavior of the guinea pig after administering histamine was videotaped, and the ocular pruritus was evaluated on each eye by counting actions of scratching the eye with the hind foot. The average value of the number of eye scratchings for 30 minutes after administering histamine and the eye scratching inhibition rate are shown in Table 1. In each example, 12 eyes are used.
Eye scratching inhibition rate=100−(number of eye scratchings with test compound)/(number of eye scratchings with control)×100

[2] = system: allergic conjunctivitis models; test: Ocular pruritus inhibition activity to allergic conjunctivitis models; conditions: for Eye scratching inhibition rate: 0.1% (w/v) instilled twice before ovalbumin, 30 minutes, 12 eyes
Method: Aluminum hydroxide gel-adsorbed ovalbumin (20 μg/mL) was dissolved in a physiological saline, and the resulting solution was subconjunctivally injected into both eyes of a 4-week-old male Hartley guinea pig in 100-μL portions for active sensitization. On days 14, 16, 18, 21, 23 and 25 after the sensitization, a physiological saline containing 2.5% (w/v) ovalbumin was instilled into both eyes in 10 μL/one eye to induce allergic conjunctivitis. A physiological saline was used as a control.
Five minutes and 15 minutes (twice in total) before the instilling of ovalbumin on days 16, 18, 21, 23 and 25 after the sensitization, a suspension of 0.1% (w/v) palmidrol in a physiological saline was instilled into both eyes of the guinea pig in 10 μL/one eye.
The behavior of the guinea pig for 30 minutes after the instilling of ovalbumin on days 21, 23 and 25 after the sensitization were videotaped, and the ocular pruritus was evaluated by counting the number of eye scratchings in case of instilling palmidrol and a control. In each example, 12 eyes are used.

[3] = system: platelet activating factor (PAF)-induced models; test: Ocular pruritus inhibition activity to platelet activating factor-induced models; conditions: for Eye scratching inhibition rate: 8 eyes; for Number of eye scratchings in comparison with the controls (in words): instilled suspensions, extent depends approximately on concentration
Method: The ocular pruritus inhibition activity to platelet activating factor (PAF)-induced models was examined using anandamide (test compound A), indometacin morpholinylamide (test compound B) and N-(benzo[d][1,3]dioxol-5-ylmethyl)-7-methoxy-2-oxo-8-penty loxy-1,2-dihydroquinoline-3-carboxamide (test compound C).
Test compound A (50 mg/ml in EtOH) was suspended in a physiological saline at a concentration of 0.01% (w/v). Test compound B was suspended in a 1.0% Tween 80/physiological saline at a concentration of 0.001% or 0.01% (w/v). Test compound C was suspended in a 5.0% Tween 80/physiolosical saline at a concentration of 0.0001%, 0.001% or 0.01% (w/v). In this manner, the test compound suspensions were prepared.
With respect to test compounds A and B, each of the test compound suspensions was instilled into both eyes of a 5-week-old male Hartley guinea pig in 10 μL/one eye. Ten minutes later, each of the test compound suspensions was instilled thereinto at the same concentration (twice in total). With respect to test compound C, the test compound suspension was instilled into both eyes of the 5-week-old male Hartley guinea pig in 10 μL/one eye.
Subsequently, with respect to test compounds A and B, a physiological saline containing 0.1% (w/v) of the platelet activating factor was instilled in 10 μL/one eye into both eyes of the guinea pig after 5 minutes from the second instilling of the respective test compound suspensions. With respect to test compound C, the same physiological saline was instilled in 10 μL/one eye into both eyes of the guinea pig after 15 minutes from the instilling of the test compound suspension. In this manner, the eye scratching action was induced. As controls of test compounds A, B and C, a 2.0% ethanol/physiological saline, a physiological saline and a 5.0% Tween 80/physiological saline were used respectively.
The behavior of the guinea pig after instilling the platelet activating factor was videotaped, and the ocular pruritus was evaluated for each eye by counting the number of actions of scratching the eye with the hind foot. The average value of the eye scratching inhibition rate for 30 minutes after instilling the platelet activating factor is shown in Table 3. In each example, 8 eyes are used.

[4] = 0.1% (w/v) suspension instilled twice
[5] = 0.5% (w/v) suspension instilled twice
[6] = 0.01% (w/v) suspension instilled twice, 30 minutes after 0.1% PAF

CCCCCCCCCCCCCCCC(=O)NCCO [Palmidrol, N-palmitoyl-ethanolamide]
Number of eye scratchings [1, 4]: 8.5 times | Eye scratching inhibition rate [1, 4]: 62.8% | Number of eye scratchings [1, 5]: 3.8 times | Eye scratching inhibition rate [1, 5]: 83.2% | Number of eye scratchings in comparison with the control (in words) ([1]; instilled 0.1% or 0.5%, extent depends on concentration): markedly decreased | Eye scratching inhibition rate ([2]; Day 21 after sensitization): 41.5% | Eye scratching inhibition rate ([2]; Day 23 after sensitization): 52.3% | Eye scratching inhibition rate ([2]; Day 25 after sensitization): 51.7% | Eye scratching action in comparison with the control (in words) ([2]; 0.1% instilled): significantly inhibited

CCCCCOc1c(OC)ccc2cc(C(=O)NCc3ccc4c(c3)OCO4)c(=O)[nH]c12 [Test Compound C, N-(benzo[d][1,3]dioxol-5-ylmethyl)-7-methoxy-2-oxo-8-pentyloxy-1,2-dihydroquinoline-3-carboxamide]
Eye scratching inhibition rate ([3]; 0.0001% (w/v) suspension instilled once, 15 minutes before 0.1% PAF, 30 minutes): 22.7% | Eye scratching inhibition rate ([3]; 0.001% (w/v) suspension instilled once, 15 minutes before 0.1% PAF, 30 minutes): 34.3% | Eye scratching inhibition rate ([3]; 0.01% (w/v) suspension instilled once, 15 minutes before 0.1% PAF, 30 minutes): 44.2% | Number of eye scratchings in comparison with the controls (in words) [3]: markedly decreased

CCCCC/C=C\C/C=C\C/C=C\C/C=C\CCCC(=O)NCCO [Test compound A, anandamide]
Eye scratching inhibition rate [3, 6]: 40.9% | Number of eye scratchings in comparison with the controls (in words) [3]: markedly decreased

COc1ccc2c(c1)c(CC(=O)N1CCOCC1)c(C)n2C(=O)c1ccc(Cl)cc1 [Test compound B, indometacin morpholinylamide]
Eye scratching inhibition rate ([3]; 0.001% (w/v) suspension instilled twice, 30 minutes after 0.1% PAF): 38.7% | Eye scratching inhibition rate [3, 6]: 52.9% | Number of eye scratchings in comparison with the controls (in words) [3]: markedly decreased
